Assay results taken from PubChem BioAssay (NCI).
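At the GI50, growth is halved. Definition used: TGI = concentration required for complete inhibition of growth.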

How the values were obtained:
Experiment in all cases: NCI tumour cell line growth inhibition, 384-well format
[1] = system: A498 renal
[2] = system: A549 NSCLC
[3] = system: CCRF-CEM leukemia
[4] = system: HT29 colon
[5] = system: KM12 colon
[6] = system: MCF7 breast
[7] = system: RPMI-8226 leukemia
[8] = system: SK-OV-3 ovarian
[9] = system: SR leukemia
[10] = system: T-47D breast
[11] = system: U251 glioblastoma
[12] = system: UACC-257 melanoma
[13] = system: UACC-62 melanoma

Compound | GI50 [1] [µM] | TGI [1] [µM] | GI50 [2] [µM] | TGI [2] [µM] | GI50 [3] [µM] | TGI [3] [µM] | GI50 [4] [µM] | TGI [4] [µM] | GI50 [5] [µM] | TGI [5] [µM] | GI50 [6] [µM] | TGI [6] [µM] | GI50 [7] [µM] | TGI [7] [µM] | GI50 [8] [µM] | TGI [8] [µM] | GI50 [9] [µM] | TGI [9] [µM] | GI50 [10] [µM] | TGI [10] [µM] | also measured
c1ccc2c(NCCCN3CCN(CCCNc4c5ccccc5nc5ccccc45)CC3)c3ccccc3nc2c1 | 0.504 | 2.05 | 0.445 | 1.93 | 0.118 | 0.551 | 0.339 | 1.53 | 0.539 | 2.26 | 0.208 | 0.909 | 0.134 | 0.291 | 0.458 | 2.45 | 0.155 | 0.328 | 1.1 | 3.61 | GI50 [11]: 0.223 µM; TGI [11]: 0.766 µM; GI50 [12]: 1.39 µM; TGI [12]: 2.7 µM; GI50 [13]: 0.336 µM; TGI [13]: 1.15 µM
CN1CCN(c2ccc(-c3cccc(CN4CCOCC4)c3)cc2NC(=O)c2c[nH]c(=O)cc2C(F)(F)F)CC1 | 17.3 | 40.7 | 14.4 | > 100 | 6.98 | 13.8 | 14.2 | 32 | 15.9 | > 87.6 | 16.8 | > 62.7 | 17.9 | 43.4 | > 61.1 | > 100 | 12.2 | 24.8 | 23.1 | > 88.9 | GI50 [11]: 12.1 µM; TGI [11]: 30.9 µM; GI50 [12]: 15.3 µM; TGI [12]: 28.7 µM; GI50 [13]: 19 µM; TGI [13]: 62.8 µM
